Reference: paper doi:10.1101/2021.08.28.458030v1 (biorxiv, 2021)

Target: T1, lactate dehydrogenase A (LDHA) (Homo sapiens, UniProt P00338)
Experiment: NADH fluorometric LDH assay
Assay type: biochemical
Details: not given

SMILES | IC50 [µM]
CCCCCCCC/C=C\CCCCCCCC(=O)SCCNC(=O)CCNC(=O)[C@H](O)C(C)(C)COP(=O)(O)OP(=O)(O)OC[C@H]1O[C@@H](n2cnc3c(N)ncnc32)[C@H](O)[C@@H]1OP(=O)(O)O [C18:1-CoA] | ~1
CCCCCCCCCCCC(=O)SCCNC(=O)CCNC(=O)[C@H](O)C(C)(C)COP(=O)(O)OP(=O)(O)OC[C@H]1O[C@@H](n2cnc3c(N)ncnc32)[C@H](O)[C@@H]1OP(=O)(O)O [C12:0-CoA] | > 100
Nc1ncnc2c1ncn2[C@@H]1O[C@H](COP(=O)(O)O)[C@@H](O)[C@H]1O [AMP] | 24400
CCCCCCCCCCCCCCCC(=O)SCCNC(=O)CCNC(=O)[C@H](O)C(C)(C)COP(=O)(O)OP(=O)(O)OC[C@H]1O[C@@H](n2cnc3c(N)ncnc32)[C@H](O)[C@@H]1OP(=O)(O)O [C16:0-CoA] | ~1
Nc1ncnc2c1ncn2[C@@H]1O[C@H](COP(=O)(O)OP(=O)(O)O)[C@@H](O)[C@H]1O [ADP] | 5060

Target: lactate dehydrogenase B (LDHB) (Homo sapiens, UniProt P07195)
Experiment: NADH fluorometric LDH assay
Assay type: biochemical
Details: not given

lactate dehydrogenase B (LDHB), sequence (P07195 2-334): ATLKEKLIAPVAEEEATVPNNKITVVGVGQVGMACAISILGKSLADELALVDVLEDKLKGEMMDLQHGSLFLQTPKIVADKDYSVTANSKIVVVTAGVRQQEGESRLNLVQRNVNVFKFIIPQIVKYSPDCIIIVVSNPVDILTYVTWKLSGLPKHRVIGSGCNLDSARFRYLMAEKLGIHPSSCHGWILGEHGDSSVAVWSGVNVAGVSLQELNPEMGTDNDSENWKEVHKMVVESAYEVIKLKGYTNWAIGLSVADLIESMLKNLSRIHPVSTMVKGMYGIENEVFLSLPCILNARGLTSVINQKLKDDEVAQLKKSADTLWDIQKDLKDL

SMILES | IC50 [µM]
CC(=O)SCCNC(=O)CCNC(=O)[C@H](O)C(C)(C)COP(=O)(O)OP(=O)(O)OC[C@H]1O[C@@H](n2cnc3c(N)ncnc32)[C@H](O)[C@@H]1OP(=O)(O)O [C2:0-CoA] | > 100
CCCCCCCC/C=C\CCCCCCCC(=O)SCCNC(=O)CCNC(=O)[C@H](O)C(C)(C)COP(=O)(O)OP(=O)(O)OC[C@H]1O[C@@H](n2cnc3c(N)ncnc32)[C@H](O)[C@@H]1OP(=O)(O)O [C18:1-CoA] | > 100
CCCC(=O)SCCNC(=O)CCNC(=O)[C@H](O)C(C)(C)COP(=O)(O)OP(=O)(O)OC[C@H]1O[C@@H](n2cnc3c(N)ncnc32)[C@H](O)[C@@H]1OP(=O)(O)O [C4:0-CoA] | > 100
CCCCCCCCCCCC(=O)SCCNC(=O)CCNC(=O)[C@H](O)C(C)(C)COP(=O)(O)OP(=O)(O)OC[C@H]1O[C@@H](n2cnc3c(N)ncnc32)[C@H](O)[C@@H]1OP(=O)(O)O [C12:0-CoA] | > 100
Nc1ncnc2c1ncn2[C@@H]1O[C@H](COP(=O)(O)O)[C@@H](O)[C@H]1O [AMP] | 51400
CCCCCCCCCCCCCCCC(=O)SCCNC(=O)CCNC(=O)[C@H](O)C(C)(C)COP(=O)(O)OP(=O)(O)OC[C@H]1O[C@@H](n2cnc3c(N)ncnc32)[C@H](O)[C@@H]1OP(=O)(O)O [C16:0-CoA] | > 100
Nc1ncnc2c1ncn2[C@@H]1O[C@H](COP(=O)(O)OP(=O)(O)O)[C@@H](O)[C@H]1O [ADP] | 14900
CCCCCCCCCCCCCCCCCCCC(=O)SCCNC(=O)CCNC(=O)[C@H](O)C(C)(C)COP(=O)(O)OP(=O)(O)OC[C@H]1O[C@@H](n2cnc3c(N)ncnc32)[C@H](O)[C@@H]1OP(=O)(O)O [C20:0-CoA] | > 100
CCCCCCCC(=O)SCCNC(=O)CCNC(=O)[C@H](O)C(C)(C)COP(=O)(O)OP(=O)(O)OC[C@H]1O[C@@H](n2cnc3c(N)ncnc32)[C@H](O)[C@@H]1OP(=O)(O)O [C8:0-CoA] | > 100

Target: T1, lactate dehydrogenase A (LDHA)
Experiment: biochemical
Details: not given

SMILES | IC50 [µM]
CCCCCCCC/C=C\CCCCCCCC(=O)SCCNC(=O)CCNC(=O)[C@H](O)C(C)(C)COP(=O)(O)OP(=O)(O)OC[C@H]1O[C@@H](n2cnc3c(N)ncnc32)[C@H](O)[C@@H]1OP(=O)(O)O [C18:1-CoA] | 0.8
CCCCCCCCCCCCCCCC(=O)SCCNC(=O)CCNC(=O)[C@H](O)C(C)(C)COP(=O)(O)OP(=O)(O)OC[C@H]1O[C@@H](n2cnc3c(N)ncnc32)[C@H](O)[C@@H]1OP(=O)(O)O [C16:0-CoA] | 1.54
CCCCCCCCCCCCCCCCCCCC(=O)SCCNC(=O)CCNC(=O)[C@H](O)C(C)(C)COP(=O)(O)OP(=O)(O)OC[C@H]1O[C@@H](n2cnc3c(N)ncnc32)[C@H](O)[C@@H]1OP(=O)(O)O [C20:0-CoA] | 1.01

Target: T2, CASTOR1 (Homo sapiens, UniProt Q8WTX7)
T2 sequence (Q8WTX7 1-329): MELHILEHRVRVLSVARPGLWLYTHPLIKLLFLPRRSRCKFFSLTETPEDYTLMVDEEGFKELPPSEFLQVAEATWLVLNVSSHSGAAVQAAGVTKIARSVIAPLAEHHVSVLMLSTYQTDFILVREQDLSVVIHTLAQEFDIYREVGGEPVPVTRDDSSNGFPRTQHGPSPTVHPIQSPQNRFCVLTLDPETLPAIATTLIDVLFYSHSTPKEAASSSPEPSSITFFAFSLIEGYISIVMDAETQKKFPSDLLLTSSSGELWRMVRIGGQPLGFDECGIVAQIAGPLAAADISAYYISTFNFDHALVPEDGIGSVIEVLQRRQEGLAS
Experiment: equilibrium dialysis MS
Assay type: binding
Details: 150 mM ammonium acetate pH 7.4, 4 C, metabolite pool

SMILES | equilibrium dialysis MS (MIDAS)
N=C(N)NCCC[C@H](N)C(=O)O [arginine] | CASTOR1 enriched arginine (Fig. 1C)
